Reference: US10662477B2, “Biomarkers and methods to predict response to inhibitors and uses thereof” (Millennium Pharmaceuticals, Inc., priority 2012, dated 2020)
Read-outs that look alike come from different tables or passages of the source.

Key:
[1] = system: NSCLC patients; assay: BATTLE clinical trial Sorafenib arm, progression-free survival by Sorafenib PLSR model group; format: in vivo, human
[2] = system: Kidney cancer; assay: Sorafenib phase III clinical trial on Kidney cancer; format: in vivo, human; conditions: Sorafenib vs. placebo
[3] = system: Kidney cancer; conditions: phase III clinical trial, cited from earlier work
[4] = system: NSCLC patients; assay: BATTLE clinical trial Erlotinib arm, progression-free survival by Erlotinib PLSR model group; format: in vivo, human
[5] = system: human melanoma tumors; assay: Melanoma explants (human tumor xenografts) in mice treated with MLN4924, tumor growth; format: in vivo; conditions: subcutaneous treatment
[6] = system: tumor xenografts; assay: Xenograft models of MLN4924 treatment, average plasma concentration needed for tumor stasis, sensitivity rank; format: in vivo, rats or mice; conditions: for C avg at stasis: average plasma concentration needed to reach tumor stasis; for Sensitivity Rank: rank of 1 is most sensitive, 16 is least sensitive

Structure (SMILES): CNC(=O)c1cc(Oc2ccc(NC(=O)Nc3ccc(Cl)c(C(F)(F)F)c3)cc2)ccn1 [Sorafenib]
- median PFS survival ([1]; marker-insensitive group (Sorafenib model), BATTLE Sorafenib arm): 1.87 months
- median PFS survival ([1]; marker-sensitive group (Sorafenib model), BATTLE Sorafenib arm): 4.53 months
- PFS survival benefit ([1]; marker-sensitive group vs marker-resistant group, BATTLE Sorafenib arm): 2.66 months
- Hazard-ratio ([1]; marker-sensitive vs marker-resistant group, PFS, p-value 0.006): 0.32
- PFS benefit [2]: 2.77 month
- median survival ([3]; Sorafenib arm (placebo 84 days)): 167 days
- median survival ([3]; Sorafenib arm, days converted to months (placebo 2.80)): 5.57 months

Structure (SMILES): C#Cc1cccc(Nc2ncnc3cc(OCCOC)c(OCCOC)cc23)c1 [Erlotinib, N-(3-ethynylphenyl)-6,7-bis(2-methoxyethoxy) quinazolin-4-amine]
- PFS ([4]; Erlotinib-resistant patients (Erlotinib PLSR signature), BATTLE Erlotinib arm): 1.84 month
- median PFS ([4]; Erlotinib-sensitive patient group (Erlotinib PLSR signature), BATTLE Erlotinib arm): 3.84 month
- Hazard ratio ([4]; Erlotinib-sensitive vs Erlotinib-resistant patient group, PFS, p-value 0.09): 0.43

Structure (SMILES): NS(=O)(=O)OC[C@@H]1C[C@@H](n2ccc3c(N[C@H]4CCc5ccccc54)ncnc32)C[C@@H]1O [MLN4924, ((1S,2S,4R)-4-{4-[(1S)-2,3-dihydro-1H-inden-1-ylamino]-7H-pyrrolo[2,3-d]pyrimidin-7-yl}-2-hydroxycyclopentyl)methyl sulphamate]
- Experimental Result with MLN4924 treatment ([5]; melanoma explant 1, tumor growth in mice): Sensitive
- Experimental Result with MLN4924 treatment ([5]; melanoma explant 2, tumor growth in mice): Sensitive
- Experimental Result with MLN4924 treatment ([5]; melanoma explant 3, tumor growth in mice): Sensitive
- Experimental Result with MLN4924 treatment ([5]; melanoma explant 4, tumor growth in mice): Resistant
- Experimental Result with MLN4924 treatment ([5]; melanoma explant 5, tumor growth in mice): Resistant
- Experimental Result with MLN4924 treatment ([5]; melanoma explant 6, tumor growth in mice): Resistant
- Experimental Result with MLN4924 treatment ([5]; melanoma explant 7, tumor growth in mice): Resistant
- Experimental Result with MLN4924 treatment ([5]; melanoma explant 8, tumor growth in mice): Resistant
- Experimental Result with MLN4924 treatment ([5]; melanoma explant 9, tumor growth in mice): Resistant
- Experimental Result with MLN4924 treatment ([5]; melanoma explant 10, tumor growth in mice): Resistant
- C avg at stasis ([6]; A375 xenograft, melanoma): 6.837 µg/mL
- Sensitivity Rank ([6]; A375 xenograft): 7
- C avg at stasis ([6]; DLD-1 xenograft, colon adenocarcinoma): 17.476 µg/mL
- Sensitivity Rank ([6]; DLD-1 xenograft): 16
- C avg at stasis ([6]; DU-145 xenograft, prostate cancer): 9.365 µg/mL
- Sensitivity Rank ([6]; DU-145 xenograft): 11
- C avg at stasis ([6]; HCT116 (grown in mouse) xenograft, colorectal carcinoma): 1.983 µg/mL
- Sensitivity Rank ([6]; HCT116 (grown in mouse) xenograft): 2
- C avg at stasis ([6]; HCT116 (grown in rat) xenograft, colorectal carcinoma): 1.490 µg/mL
- Sensitivity Rank ([6]; HCT116 (grown in rat) xenograft): 1
- C avg at stasis ([6]; HL-60 xenograft, promyelocytic leukemia): 2.023 µg/mL
- Sensitivity Rank ([6]; HL-60 xenograft): 3
- C avg at stasis ([6]; HT29 xenograft, colon adenocarcinoma): 7.171 µg/mL
- Sensitivity Rank ([6]; HT29 xenograft): 9
- C avg at stasis ([6]; NCI-H69 xenograft, small cell lung cancer): 6.868 µg/mL
- Sensitivity Rank ([6]; NCI-H69 xenograft): 8
- C avg at stasis ([6]; NCI-H82 xenograft, small cell lung cancer): 5.316 µg/mL
- Sensitivity Rank ([6]; NCI-H82 xenograft): 5
- C avg at stasis ([6]; NCI-H322M xenograft, non-small cell lung carcinoma): 14.722 µg/mL
- Sensitivity Rank ([6]; NCI-H322M xenograft): 14
- C avg at stasis ([6]; NCI-H460 xenograft, non-small cell lung carcinoma): 17.070 µg/mL
- Sensitivity Rank ([6]; NCI-H460 xenograft): 15
- C avg at stasis ([6]; PC3 xenograft, prostate cancer): 5.968 µg/mL
- Sensitivity Rank ([6]; PC3 xenograft): 6
- C avg at stasis ([6]; PHTX-02B xenograft, Breast cancer): 3.691 µg/mL
- Sensitivity Rank ([6]; PHTX-02B xenograft): 4
- C avg at stasis ([6]; PHTX-50M xenograft, melanoma): 8.501 µg/mL
- Sensitivity Rank ([6]; PHTX-50M xenograft): 10
- C avg at stasis ([6]; PHTX-51M xenograft, melanoma): 11.588 µg/mL
- Sensitivity Rank ([6]; PHTX-51M xenograft): 13
- C avg at stasis ([6]; SKOV3 xenograft, ovarian carcinoma): 9.890 µg/mL
- Sensitivity Rank ([6]; SKOV3 xenograft): 12
